According to the supplement of paper PMC11061612:

What was measured:
Test in all cases: combination Emax (second highest fraction inhibited in the dose matrix, 72 h); higher = more inhibition; extreme values may be limits of the assay
42-MG-BA (Glioblastoma) = test system: 42-MG-BA (Glioblastoma)
How it was run: (§1)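 Cell lines in DMEM/F12 or RPMI with 10% FBS were plated in 1536-well plates, held 24 hours at 37°C, 5% CO2, then given two-drug dose matrices for 72 hours (DMSO typically 0.2%). Viability was read by CellTiter-Glo 2.0 luminescence and scaled as inhibition from 0 (vehicle wells) to 1 (blank wells). Combination Emax is the second-highest inhibition in the matrix; Bliss excess is observed combination effect minus expected EA + EB − EA·EB, EA and EB being single-agent effects.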

[1] = test system: CCRF-CEM (T-Lymphoblastic Leukemia)
How it was run: as §1

[2] = test system: COLO-205 (Colorectal Carcinoma)
How it was run: as §1

[3] = test system: Calu-3 (Lung Adenocarcinoma)
How it was run: as §1

[4] = test system: Daoy (Other Solid Carcinomas)
How it was run: as §1

[5] = test system: DoTc2-4510 (Cervical Carcinoma)
How it was run: as §1

ES4 (Ewing's Sarcoma) = test system: ES4 (Ewing's Sarcoma)
How it was run: as §1

[6] = test system: HCC-78 (Lung Adenocarcinoma)
How it was run: as §1

[7] = test system: HCC1806 (Breast Carcinoma)
How it was run: as §1

[8] = test system: KP-1N (Pancreatic Carcinoma)
How it was run: as §1

[9] = test system: LU-135 (Small Cell Lung Carcinoma)
How it was run: as §1

[10] = test system: ME-1 (Acute Myeloid Leukemia)
How it was run: as §1

NB10 (Neuroblastoma) = test system: NB10 (Neuroblastoma)
How it was run: as §1

[11] = test system: NCI-H2085 (Non-Small Cell Lung Carcinoma)
How it was run: as §1

[12] = test system: Ramos-2G6-4C10 (Burkitt's Lymphoma)
How it was run: as §1

T98G (Glioblastoma) = test system: T98G (Glioblastoma)
How it was run: as §1

[13] = test system: TCCSUP (Bladder Carcinoma)
How it was run: as §1

[14] = test system: TE-15 (Esophageal Squamous Cell Carcinoma)
How it was run: as §1

[15] = test system: TE-9 (Esophageal Squamous Cell Carcinoma)
How it was run: as §1

| Structure (SMILES) | combination Emax (42-MG-BA (Glioblastoma)) | combination Emax [1] | combination Emax [2] | combination Emax [3] | combination Emax [4] | combination Emax [5] | combination Emax (ES4 (Ewing's Sarcoma)) | combination Emax [6] | combination Emax [7] | combination Emax [8] | combination Emax [9] | combination Emax [10] | combination Emax (NB10 (Neuroblastoma)) | combination Emax [11] | combination Emax [12] | combination Emax (T98G (Glioblastoma)) | combination Emax [13] | combination Emax [14] | combination Emax [15] |
| --- | --- | --- | --- | --- | --- | --- | --- | --- | --- | --- | --- | --- | --- | --- | --- | --- | --- | --- | --- |
| CCN(CCO)CCCOc1ccc2c(Nc3cc(CC(=O)Nc4cccc(F)c4)[nH]n3)ncnc2c1 [AZD2811] + O=C(c1cc(Cc2n[nH]c(=O)c3ccccc23)ccc1F)N1CCN(C(=O)C2CC2)CC1 [Olaparib] (first compound max 1 µM, 7x7, partner max 10 µM) | 0.464 | 1 | 0.868 | 0.153 | 0.454 | 0.297 | 0.47 | 0.206 | 0.265 | 0.0679 | 0.88 | 0.394 | 0.386 | 0.62 | 0.295 | 0.453 | 0.268 | 0.25 | 0.155 |
| C[C@@H]1COCCN1c1cc(C2([S@](C)(=N)=O)CC2)nc(-c2ccnc3[nH]ccc23)n1 [AZD6738] + O=C(c1cc(Cc2n[nH]c(=O)c3ccccc23)ccc1F)N1CCN(C(=O)C2CC2)CC1 [Olaparib] (first compound max 10 µM, 7x7, partner max 10 µM) | 0.576 | 1 | 0.301 | 0.193 | 0.867 | 0.7 | 0.817 | 0.638 | 0.89 | 0.425 | 0.604 | 0.538 | 0.811 | 0.43 | 0.779 | 0.817 | 0.646 | 0.738 | 0.436 |
| Cc1cc2ncnn2cc1Nc1ncc2c(n1)n(C1CCOCC1)c(=O)n2C [AZD7648] + C=CCn1c(=O)c2cnc(Nc3ccc(N4CCN(C)CC4)cc3)nc2n1-c1cccc(C(C)(C)O)n1 [AZD1775] (first compound max 10 µM, partner max 1 µM) | 0.439 | 1 | 0.678 | 0.242 | 0.869 | 0.531 | 0.441 | 0.432 | 0.894 | 0.349 | 0.56 | 0.355 | 0.594 | 0.512 | 0.998 | 0.711 | 0.375 | 0.565 | 0.275 |
